Series [1] is described as follows: Cytotoxicity against rabbit platelet assessed as LDH release. It counts as cell-based, Oryctolagus cuniculus. On the set-up: concentration or dose not given beside the values. Background: LDH in the medium is a marker of cell lysis.
Series [2] relates to Platelet. Nature of the series: Inhibition of […]-induced platelet aggregation in citreated rabbit platelet-rich plasma by turbidimetric method. It is filed as functional. The following applies: Oryctolagus cuniculus.
Series [3] has as its system Platelet. Nature of the series: Inhibition of U46619-induced platelet aggregation in citreated rabbit platelet-rich plasma by turbidimetric method. It counts as functional. The following applies: Oryctolagus cuniculus.
Series [4] has as its system Platelet. Nature of the series: Inhibition of thrombin-induced platelet aggregation in citreated rabbit platelet-rich plasma by turbidimetric method. Particulars: Oryctolagus cuniculus. It is filed as functional.
Series [5] has as its system Platelet. Nature of the series: Inhibition of arachidonic acid-induced platelet aggregation in citreated rabbit platelet-rich plasma by turbidimetric method. It counts as functional. The following applies: Oryctolagus cuniculus.
Series [6] can be described thus: Cytotoxicity against human Raji cells assessed as cell viability at 1000 molar ratio by trypan blue assay. It is filed as cell-based. The following applies: read-out: Activity.
For series [7], the system named is Raji. Nature of the series: Inhibition of 12-O-tetradecanoylphorbol-13-acetate induced EBV-early antigen activation in human Raji cells assessed as EA activation at 1000 molar ratio after 48 hrs relative to TPA. It counts as cell-based. On the set-up: scale not given: the % may be the effect or the level left. The following applies: human gammaherpesvirus 4.
Series [8] concerns Raji. Nature of the series: Inhibition of 12-O-tetradecanoylphorbol-13-acetate induced EBV-early antigen activation in human Raji cells assessed as EA activation at 500 molar ratio after 48 hrs relative to TPA. On the set-up: scale not given: the % may be the effect or the level left. It counts as cell-based. Particulars: human gammaherpesvirus 4.
In series [9] the test system is Raji. Kind of series: Inhibition of 12-O-tetradecanoylphorbol-13-acetate induced EBV-early antigen activation in human Raji cells assessed as EA activation at 100 molar ratio after 48 hrs relative to TPA. More on the design: scale not given: the % may be the effect or the level left. It is filed as cell-based. The following applies: human gammaherpesvirus 4.
Series [10] relates to Raji. Kind of series: Inhibition of 12-O-tetradecanoylphorbol-13-acetate induced EBV-early antigen activation in human Raji cells assessed as EA activation at 10 molar ratio after 48 hrs relative to TPA. It is filed as cell-based. More on the design: scale not given: the % may be the effect or the level left. Particulars: human gammaherpesvirus 4.

Bounds are passed on as bounds.

Broadly, the IC50 is the concentration at which inhibition is half-maximal. On to `CC(C)=CCC(O)[C@@](C)(O)[C@H]1CC[C@]2(C)[C@@H]1CC[C@@H]1[C@@]3(C)CC[C@H](O[C@@H]4O[C@H](CO)[C@@H](O)[C@H](O)[C@H]4O[C@@H]4O[C@@H](C)[C@H](O)[C@@H](O)[C@H]4O)C(C)(C)[C@@H]3C[C@H](O)[C@]12C` (some centres undefined) [SAPINMUSAPONIN A], for which the Activity in series [1] was 62.3%. Further, the IC50 in the series on Platelet [2], with Platelet [3], in the series with Platelet [4] and in the series on Platelet [5] was > 100 µM each time.

With `CC(C)=CC(O)C(O)[C@@](C)(O)[C@H]1CC[C@]2(C)[C@@H]1CC[C@@H]1[C@@]3(C)CC[C@H](O[C@@H]4O[C@H](CO)[C@@H](O)[C@H](O)[C@H]4O[C@@H]4O[C@@H](C)[C@H](O)[C@@H](O)[C@H]4O)C(C)(C)[C@@H]3C[C@H](O)[C@]12C` (some centres undefined) [SAPINMUSAPONIN B], the Activity in [1] is 62.3%. The IC50 in the series with Platelet [2], with Platelet [3], in the series on Platelet [4] and with Platelet [5] was > 100 µM in each case.

`C[C@@H]1O[C@@H](O[C@H]2[C@H](O[C@H]3CC[C@]4(C)[C@H]5CC[C@@H]6[C@@H]([C@](C)(O)C(O)/C=C/C(C)(C)O)CC[C@@]6(C)[C@]5(C)[C@@H](O)C[C@H]4C3(C)C)O[C@H](CO)[C@@H](O)[C@@H]2O)[C@H](O)[C@H](O)[C@H]1O` (some centres undefined) [SAPINMUSAPONIN C]: in series [1], the Activity came out at 62.3%. Besides, the IC50 in the series with Platelet [2], with Platelet [3], in the series on Platelet [4] and in the series on Platelet [5] was > 100 µM each time.

Take `COC(C)(C)/C=C/C(O)[C@@](C)(O)[C@H]1CC[C@]2(C)[C@@H]1CC[C@@H]1[C@@]3(C)CC[C@H](O[C@@H]4O[C@H](CO)[C@@H](O)[C@H](O)[C@H]4O[C@@H]4O[C@@H](C)[C@H](O)[C@@H](O)[C@H]4O)C(C)(C)[C@@H]3C[C@H](O)[C@]12C` (some centres undefined) [SAPINMUSAPONIN D]: in [1], the Activity is recorded as 62.3%. In addition, the half-maximal inhibitory concentration (IC50) in the series on Platelet [2], with Platelet [3], with Platelet [4] and in the series with Platelet [5] was > 100 µM each time.

For the compound `CO[C@H]1O[C@H](C=C(C)C)C[C@H]1[C@@H]1CC[C@]2(C)C3=CC[C@H]4C(C)(C)[C@@H](O[C@@H]5O[C@H](CO[C@@H]6O[C@@H](C)[C@H](O)[C@@H](O)[C@H]6O)[C@@H](O)[C@H](O)[C@H]5O)CC[C@]4(C)[C@H]3CC[C@@]12C` [SAPINMUSAPONIN F], the viability at 1000 molar ratio in [6] is 60%. Moreover, the Activity with Raji [7] is 9.1%; in series [1], < 10%; in the series on Raji [8] it was 53.6%; in the series with Raji [9], 82.6%; with Raji [10], 100%. Besides, the IC50 worked out at 7.7 µM in the series on Platelet [2], 3.4 µM in the series with Platelet [3], 8.4 µM with Platelet [4] and 6.7 µM with Platelet [5].

In the case of `CO[C@@H]1O[C@H](C=C(C)C)C[C@H]1[C@@H]1CC[C@]2(C)C3=CC[C@H]4C(C)(C)[C@@H](O[C@@H]5O[C@H](CO[C@@H]6O[C@@H](C)[C@H](O)[C@@H](O)[C@H]6O)[C@@H](O)[C@H](O)[C@H]5O)CC[C@]4(C)[C@H]3CC[C@@]12C` [SAPINMUSAPONIN G], the viability at 1000 molar ratio in [6] worked out at 60%. In addition, the Activity with Raji [7] is 9.7%; in series [1], < 10%; in the series with Raji [8] it was 53.9%; with Raji [9] it was 83.7%; in the series with Raji [10], 100%. Besides, the IC50 was 13.5 µM with Platelet [2], 5.4 µM in the series on Platelet [3], 8.9 µM in the series with Platelet [4] and 12.5 µM in the series with Platelet [5].

As for `CO[C@@H]1O[C@H](C=C(C)C)C[C@H]1[C@@H]1CC[C@]2(C)C3=CC[C@H]4C(C)(C)[C@@H](O[C@@H]5O[C@H](CO)[C@@H](O)[C@H](O)[C@H]5O[C@@H]5O[C@@H](C)[C@H](O)[C@@H](O)[C@H]5O)CC[C@]4(C)[C@H]3CC[C@@]12C` [SAPINMUSAPONIN H], the viability at 1000 molar ratio in series [6] is 60%. Further, the Activity is 11% with Raji [7]; < 10% in series [1]; 54.4% in the series on Raji [8]; 83.7% with Raji [9]; 100% with Raji [10]. Also, the IC50 in the series on Platelet [2] was 4.6 µM; in the series with Platelet [3] it was 16.3 µM; with Platelet [4], > 100 µM; with Platelet [5], 71.5 µM.

In the case of `CO[C@H]1O[C@H](C=C(C)C)C[C@H]1[C@@H]1CC[C@]2(C)C3=CC[C@H]4C(C)(C)[C@@H](O[C@@H]5O[C@H](CO[C@@H]6O[C@@H](C)[C@H](O)[C@@H](O)[C@H]6O)[C@@H](O)[C@H](O)[C@H]5O[C@@H]5O[C@@H](C)[C@H](O)[C@@H](O)[C@H]5O)CC[C@]4(C)[C@H]3CC[C@@]12C` [SAPINMUSAPONIN I], in [6], the viability at 1000 molar ratio was 60%. Further, the Activity was 14.3% with Raji [7]; < 10% in [1]; 60.5% with Raji [8]; 82.6% in the series with Raji [9]; 100% in the series on Raji [10]. The figures for the IC50 in the series with Platelet [2], in the series with Platelet [4] and in the series on Platelet [5] were 11.8 µM, 41.4 µM and 2.3 µM, respectively.

(Values after ChEMBL document CHEMBL1157941, “Sapinmusaponins F-J, bioactive tirucallane-type saponins from the galls of Sapindus mukorossi” (J Nat Prod, 2006).)
